{"source": "paper PMC3904085", "about": "(Frontiers in Neuroscience, 2014)", "key": {"human OX2 receptors": {"molecular_target": "T1, human OX2 receptors (Homo sapiens, UniProt O43614)", "T1 sequence (O43614 1-444)": "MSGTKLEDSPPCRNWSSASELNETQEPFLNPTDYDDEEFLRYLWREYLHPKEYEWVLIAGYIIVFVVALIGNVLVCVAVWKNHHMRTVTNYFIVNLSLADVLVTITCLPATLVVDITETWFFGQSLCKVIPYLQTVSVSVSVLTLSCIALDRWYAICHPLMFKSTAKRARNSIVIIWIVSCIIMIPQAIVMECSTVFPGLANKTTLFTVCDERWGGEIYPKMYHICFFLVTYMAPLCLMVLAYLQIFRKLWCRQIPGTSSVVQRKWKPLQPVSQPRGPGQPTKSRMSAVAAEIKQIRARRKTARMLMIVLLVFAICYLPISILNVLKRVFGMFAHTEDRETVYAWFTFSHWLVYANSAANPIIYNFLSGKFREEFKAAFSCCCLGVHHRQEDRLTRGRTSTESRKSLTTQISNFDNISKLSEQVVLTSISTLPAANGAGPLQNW", "assay": "biochemical", "method": "(§1) Briefly, the membranes were isolated by homogenizing cell pellet in 30 ml (w/v) 50 mM Tris buffer (pH 7.4) containing Roche Complete EDTA free protease tablets. […] All binding studies were conducted at a final volume of 200 μl. […] Then 300 μl of this solution was placed in column B on a Nunc polypropylene 96-well plate (Thermo Fisher Scientific, Inc., Rochester, NY). Serial dilutions were then made using a Biomek 2000 (Beckman Coulter, Inc., Fullerton, CA) from a starting concentration of 40 μM. […] All binding was terminated by rapid filtration using a TOMTEC 96-well cell harvester (Hamden, CT) through GF/A filters that had been presoaked with 0.3% polyethyleneimine. The filters were washed with 5.0 ml ice-cold 50 mM Tris buffer (pH 7.4) and air-dried overnight. […] Protein concentrations were measured using Coomassie Protein Plus Assay Reagent (Pierce, Rockford, IL) and serum albumin standards."}, "human OX1 receptors [1]": {"molecular_target": "T2, human OX1 receptors (Homo sapiens, UniProt O43613)", "T2 sequence (O43613 1-425)": "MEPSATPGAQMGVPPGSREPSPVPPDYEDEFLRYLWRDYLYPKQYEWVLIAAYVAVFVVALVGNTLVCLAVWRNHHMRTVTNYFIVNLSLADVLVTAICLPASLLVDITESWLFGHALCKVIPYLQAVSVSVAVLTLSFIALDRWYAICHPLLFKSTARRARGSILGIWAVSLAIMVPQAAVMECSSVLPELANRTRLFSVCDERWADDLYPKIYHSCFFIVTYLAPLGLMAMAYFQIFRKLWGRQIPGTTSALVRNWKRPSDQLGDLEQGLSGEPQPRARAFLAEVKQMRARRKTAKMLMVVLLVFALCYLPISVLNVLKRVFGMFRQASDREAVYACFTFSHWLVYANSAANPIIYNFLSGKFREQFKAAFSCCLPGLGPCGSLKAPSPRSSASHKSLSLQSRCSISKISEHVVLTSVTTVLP", "assay": "Intracellular calcium mobilization (FLIPR), antagonist mode vs EC70 orexin-A", "details": "HEK293 cells, mean ± s.e.m. (n)", "procedure": "(§2) Recombinant human OX1 and OX2 receptors were stably expressed in HEK293 cells, or rat recombinant OX1 and OX2 receptors stably expressed in AV12 cells, and assessed for intracellular calcium mobilization using Fluo-3 dye (Molecular Probes, Eugene, OR). […] It was further diluted to 8 mM in 2.5 mM probenecid loading buffer which was made as described below. The human cell line was grown in DMEM/F-12 (3:1) supplemented with 10% FBS (heat-inactivated), 20 mM HEPES, 1% Penn/Strep, and 4 μg/ml Blasticidin (35,000 cells/well). The rat cell line was grown in DMEM supplemented with 10% FBS (heat-inactivated), 20 mM HEPES, 1% Penn/Strep, 4 μg/ml Blasticidin, and 1 mM sodium pyruvate (60,000 cells/well). […] Finally, plates were read on a fluorescence imaging plate reader (FLIPR; Molecular Devices, LLC, Sunnyvale, CA) instrument with a 50 μl addition of antagonist; cells were placed in the dark at room temperature for an additional 15 min; then read on FLIPR instrument with a 100 μl addition of an EC70 concentration of orexin A (for a total volume of 200 μl). […] Kb-values were calculated based on 10-point dilution curves using ActivityBase templates (ID Business Solutions, Ltd., Guildford, Surrey, UK). […]"}, "human OX1 receptors [2]": {"molecular_target": "T2, human OX1 receptors", "assay": "Radioligand binding, [125I]-Orexin A displacement, HEK293 membranes", "set-up": "expressed in transfected cells; membranes", "details": "90 min, mean ± s.e.m. (n)", "method": "as §1"}, "rat OX1 receptors": {"molecular_target": "T3, rat OX1 receptors (Rattus norvegicus, UniProt P56718)", "T3 sequence (P56718 1-416)": "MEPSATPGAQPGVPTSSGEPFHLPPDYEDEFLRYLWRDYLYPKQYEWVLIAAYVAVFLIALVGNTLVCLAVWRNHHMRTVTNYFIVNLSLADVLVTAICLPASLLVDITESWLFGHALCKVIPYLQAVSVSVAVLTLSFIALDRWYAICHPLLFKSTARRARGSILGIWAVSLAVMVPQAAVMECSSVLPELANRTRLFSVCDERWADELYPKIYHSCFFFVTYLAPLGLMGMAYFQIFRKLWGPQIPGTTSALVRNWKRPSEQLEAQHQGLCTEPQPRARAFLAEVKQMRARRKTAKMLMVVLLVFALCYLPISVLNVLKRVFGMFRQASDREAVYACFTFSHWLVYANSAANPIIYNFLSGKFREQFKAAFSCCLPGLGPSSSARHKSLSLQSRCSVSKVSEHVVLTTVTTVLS", "assay": "cell-based", "procedure": "as §2"}, "rat OX2 receptors": {"molecular_target": "T4, rat OX2 receptors (Rattus norvegicus, UniProt P56719)", "T4 sequence (P56719 1-460)": "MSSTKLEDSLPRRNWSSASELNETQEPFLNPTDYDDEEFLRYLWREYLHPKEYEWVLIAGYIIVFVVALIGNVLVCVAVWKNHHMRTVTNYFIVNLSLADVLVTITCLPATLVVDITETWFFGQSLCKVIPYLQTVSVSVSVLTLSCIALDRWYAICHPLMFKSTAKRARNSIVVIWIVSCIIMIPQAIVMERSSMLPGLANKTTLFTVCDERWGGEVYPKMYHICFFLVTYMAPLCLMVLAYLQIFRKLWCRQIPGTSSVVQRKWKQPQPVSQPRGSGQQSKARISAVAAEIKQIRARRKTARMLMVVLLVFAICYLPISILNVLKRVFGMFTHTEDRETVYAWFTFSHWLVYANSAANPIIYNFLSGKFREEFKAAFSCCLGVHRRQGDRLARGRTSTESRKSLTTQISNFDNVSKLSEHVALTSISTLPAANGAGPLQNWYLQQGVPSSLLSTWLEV", "assay": "cell-based"}}, "note": "Where two headings read alike, the source gives them in different places."}
{"compound": "CNC(=O)[C@@H](c1ccccc1)N1CCc2cc(OC)c(OC)cc2[C@@H]1CCc1ccc(C(F)(F)F)cc1", "note": "[Almorexant (R)]", "values": [{"measurement": "Receptor binding affinity, Ki OX2", "setting": "human OX2 receptors; HEK293 membranes, [125I]-orexin A, 90 min, mean ± s.e.m. (n)", "value": "inactive"}, {"measurement": "Ki", "setting": "human OX2 receptors; read-out: Receptor binding affinity, Ki OX2, HEK293 membranes, [125I]-orexin A, 90 min, mean ± s.e.m. (n)", "value": "> 10000", "unit": "nM"}, {"measurement": "Functional antagonist activity, Kb hOX1", "setting": "human OX1 receptors [1]", "value": "inactive"}, {"measurement": "Receptor binding affinity, Ki OX1", "setting": "human OX1 receptors [2]", "value": "inactive"}]}
{"compound": "CNC(=O)[C@@H](c1ccccc1)N1CCc2cc(OC)c(OC)cc2[C@@H]1CCc1ccc(C(F)(F)F)cc1", "note": "[Almorexant (S)]", "values": [{"measurement": "Ki", "setting": "human OX2 receptors", "value": "6.9 ± 0.18", "unit": "nM"}, {"measurement": "Kb", "setting": "rat OX1 receptors", "value": "3.2 ± 0.7", "unit": "nM"}, {"measurement": "Kb", "setting": "rat OX2 receptors", "value": "4.4 ± 1.6", "unit": "nM"}]}
